Read-outs that look alike come from different tables or passages of the source.
Experiments:
Format in all cases: biochemical
MMP1 = target: T1, MMP1 (Homo sapiens, UniProt P03956); assay: MMP-1 colorimetric inhibition assay (Enzo kit BML-AK404); conditions: thiopeptide substrate, absorbance 415 nm; read-out: MMP 1 IC50 class
T1 sequence (P03956 100-269 limits assumed): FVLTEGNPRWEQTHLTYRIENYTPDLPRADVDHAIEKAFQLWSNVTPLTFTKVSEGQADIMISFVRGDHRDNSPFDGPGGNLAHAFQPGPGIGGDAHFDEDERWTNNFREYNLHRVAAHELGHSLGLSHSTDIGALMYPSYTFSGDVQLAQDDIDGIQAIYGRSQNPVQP
Method in brief: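 Colorimetric kit run per manufacturer protocol. MMP-1 cleaves a thiopeptide substrate (Ac-PLG-[2-mercapto-4-methylpentanoyl]-LG-OC2H5); released thiol reacts with DTNB, monitored at 415 nm. IC50 (nM) from inhibition curves of normalized values.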

MMP2 = target: T2, MMP2 (Homo sapiens, UniProt P08253); assay: MMP-2 colorimetric inhibition assay (Enzo kit BML-AK408); conditions: thiopeptide substrate, absorbance 415 nm; read-out: MMP 2 IC50 class
T2 sequence (P08253 110-660): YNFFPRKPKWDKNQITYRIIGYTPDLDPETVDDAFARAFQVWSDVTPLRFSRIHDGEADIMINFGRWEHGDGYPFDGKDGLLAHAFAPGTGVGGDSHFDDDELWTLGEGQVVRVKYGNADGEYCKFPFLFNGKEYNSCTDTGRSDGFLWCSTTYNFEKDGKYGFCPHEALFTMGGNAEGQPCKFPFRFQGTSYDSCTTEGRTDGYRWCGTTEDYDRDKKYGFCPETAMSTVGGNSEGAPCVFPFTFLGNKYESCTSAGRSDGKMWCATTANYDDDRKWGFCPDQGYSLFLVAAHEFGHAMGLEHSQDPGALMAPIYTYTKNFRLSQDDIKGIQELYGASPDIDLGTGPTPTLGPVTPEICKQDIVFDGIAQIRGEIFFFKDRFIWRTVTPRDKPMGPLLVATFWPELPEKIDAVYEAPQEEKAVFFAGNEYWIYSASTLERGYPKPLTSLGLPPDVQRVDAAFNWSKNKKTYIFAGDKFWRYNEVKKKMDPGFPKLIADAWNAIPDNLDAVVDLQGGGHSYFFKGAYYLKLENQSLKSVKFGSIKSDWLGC
Method in brief: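 Cleavage of the thiopeptide Ac-PLG-[2-mercapto-4-methylpentanoyl]-LG-OC2H5 releases a sulfhydryl that reacts with DTNB, read at 415 nm per the kit protocol. IC50 values (nM) come from inhibition curves of normalized data.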

MMP9 = MMP9 (Homo sapiens, UniProt P14780); assay: MMP-9 colorimetric inhibition assay (Enzo kit BML-AK410); conditions: thiopeptide substrate, absorbance 415 nm; read-out: MMP 9 IC50 class
Chain of MMP9 (P14780 94-707): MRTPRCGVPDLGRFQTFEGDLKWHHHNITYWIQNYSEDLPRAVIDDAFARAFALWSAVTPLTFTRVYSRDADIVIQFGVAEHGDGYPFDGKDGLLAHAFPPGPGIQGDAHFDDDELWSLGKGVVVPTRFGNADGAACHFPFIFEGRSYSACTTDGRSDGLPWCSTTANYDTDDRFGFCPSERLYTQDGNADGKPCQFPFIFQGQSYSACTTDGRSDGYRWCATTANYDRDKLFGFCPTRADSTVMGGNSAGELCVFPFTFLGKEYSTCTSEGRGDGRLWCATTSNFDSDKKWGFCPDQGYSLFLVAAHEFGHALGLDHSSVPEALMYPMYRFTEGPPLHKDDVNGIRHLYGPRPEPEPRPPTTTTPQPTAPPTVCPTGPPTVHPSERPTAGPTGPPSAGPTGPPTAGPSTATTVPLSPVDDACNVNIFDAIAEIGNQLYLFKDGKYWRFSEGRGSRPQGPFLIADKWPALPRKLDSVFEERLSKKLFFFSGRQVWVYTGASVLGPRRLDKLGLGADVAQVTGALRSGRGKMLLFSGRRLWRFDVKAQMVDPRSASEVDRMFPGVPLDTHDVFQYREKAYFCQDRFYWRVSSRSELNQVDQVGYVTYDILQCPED
Method in brief: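 Colorimetric thioester-substrate assay: hydrolysis of Ac-PLG-[2-mercapto-4-methylpentanoyl]-LG-OC2H5 frees a thiol that reacts with DTNB, read at 415 nm. Run per kit protocol. IC50 (nM) taken from inhibition curves of normalized values.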

MMP13 = target: T3, MMP13 (Homo sapiens, UniProt P45452); assay: MMP-13 colorimetric inhibition assay (Enzo kit BML-AK412)
T3 construct: purchased Enzo Life Sciences, Inc. BML-AK412
Method in brief: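 Thiopeptide chromogenic substrate (Ac-PLG-[2-mercapto-4-methylpentanoyl]-LG-OC2H5); MMP-13 hydrolysis of the thioester yields a thiol that reacts with DTNB, read at 415 nm. IC50 values (nM) derived from inhibition curves of normalized data.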

ADAM17 (TACE) = ADAM17 (TACE) (Homo sapiens, UniProt P78536); assay: TACE fluorometric inhibition assay (Enzo kit BML-AK310); conditions: quenched fluorogenic peptide, ex/em 320/420 nm; read-out: TACE IC50 class
Chain of ADAM17 (TACE) (P78536 215-477 limits assumed): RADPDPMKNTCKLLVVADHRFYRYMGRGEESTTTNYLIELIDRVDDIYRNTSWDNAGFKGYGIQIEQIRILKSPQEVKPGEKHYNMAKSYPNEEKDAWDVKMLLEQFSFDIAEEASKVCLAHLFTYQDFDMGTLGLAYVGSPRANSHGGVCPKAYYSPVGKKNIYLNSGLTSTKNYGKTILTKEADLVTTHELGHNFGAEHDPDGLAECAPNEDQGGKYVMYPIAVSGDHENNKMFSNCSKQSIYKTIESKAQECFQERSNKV
Method in brief: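 Kit-based TACE assay run per manufacturer's protocol, using quenched fluorogenic peptide Mca-PLAQAV-Dpa-RSSSR-NH2 whose cleavage raises Mca fluorescence. Signal read at ex/em 320/420 nm; IC50 (nM) derived from inhibition curves of normalized values.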

ADAM10 = target: T4, ADAM10 (Homo sapiens, UniProt O14672); assay: SensoLyte 520 ADAM10 fluorometric activity assay (AnaSpec AS-72226); conditions: FRET peptide substrate, ex/em 495/520 nm; read-out: ADAM 10 IC50 class
T4 construct: purchased AnaSpec, Inc. AS-72226
T4 sequence (O14672 214-748): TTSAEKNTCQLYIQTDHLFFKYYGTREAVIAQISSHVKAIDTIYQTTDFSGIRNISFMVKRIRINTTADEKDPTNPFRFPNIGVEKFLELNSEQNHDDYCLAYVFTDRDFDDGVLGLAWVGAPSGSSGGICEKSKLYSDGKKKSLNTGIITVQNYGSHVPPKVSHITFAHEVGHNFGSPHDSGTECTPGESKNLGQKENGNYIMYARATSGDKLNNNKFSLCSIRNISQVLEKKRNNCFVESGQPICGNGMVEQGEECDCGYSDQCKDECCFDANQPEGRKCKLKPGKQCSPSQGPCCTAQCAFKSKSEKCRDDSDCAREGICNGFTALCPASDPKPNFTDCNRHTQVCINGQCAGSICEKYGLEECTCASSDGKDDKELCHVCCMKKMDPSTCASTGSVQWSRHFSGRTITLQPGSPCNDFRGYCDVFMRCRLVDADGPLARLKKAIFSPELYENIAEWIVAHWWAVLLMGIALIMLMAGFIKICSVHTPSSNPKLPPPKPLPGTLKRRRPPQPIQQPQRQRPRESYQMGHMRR
Description: The inhibitory activities of the compounds of the invention were assessed in 96-well microplate format using MMP1, MMP2, MMP9 and MMP13 colorimetric assay kits and TACE fluorometric assay kit from Enzo Life Sciences, Inc. The inhibitory effect of the compounds of the invention on ADAM10 activity were evaluated in 96-well microplate format using fluorometric assay from AnaSpec, Inc.
SensoLyte® 520 ADAM10 Activity Assay Kit (catalog #AS-72226) is a complete assay system designed to screen ADAM10 inhibitors using FRET-based peptide substrate containing the 5-FAM/QXL™ 520 fluorophore/quencher pair. The fluorescence of 5-FAM is quenched by QXL™ 520 and recovered upon cleavage of the peptide by active ADAM10.
The inhibitory activity of the compounds of the invention against ADAM10 was tested according to the manufacturer's assay protocol and the fluorescence was monitored at excitation/emission wavelengths=495 nm/520 nm using Tecan Infinite® 200 Pro F Nano^+ microplate reader.
The normalized values were analyzed using GraphPadPrism 9 for Windows (GraphPad Software, San Diego, CA, USA) software by plotting inhibition curves and determining the IC50 values (in nM).

[1] = thiopeptide substrate, absorbance 415 nm, read-out: MMP 13 IC50 class

Row | Structure (SMILES) | IC50 (MMP1) [nM] | IC50 (MMP2) [nM] | IC50 (MMP9) [nM] | IC50 (MMP13; [1]) [nM] | IC50 (ADAM17 (TACE)) [nM] | IC50 (ADAM10) [nM] | IC50 (MMP13) [nM]
1 | COCCOC(=O)N1[C@@H]2CC[C@H]1[C@H](C(=O)NO)N(S(=O)(=O)c1ccc(OC3CCCCC3)nc1)C2 [Example 10, 2-methoxyethyl (1S,2R,5R)-3-((6-(cyclohexyloxy)pyridin-3-yl)sulfonyl)-2-(hydroxycarbamoyl)-3,8-diazabicyclo[3.2.1]octane-8-carboxylate] | 50 to 1000 | < 50 | < 50 | < 50 | 1000 to 10000 | > 10000 | –
2 | COCCOC(=O)N1[C@@H]2CC[C@H]1[C@H](C(=O)NO)N(S(=O)(=O)c1ccc(Oc3ccc(OC)cc3)nc1)C2 [Example 18, 2-methoxyethyl (1S,2R,5R)-2-(hydroxycarbamoyl)-3-((6-(4-methoxy-phenoxy)pyridin-3-yl)sulfonyl)-3,8-diazabicyclo-[3.2.1]octane-8-carboxylate] | 1000 to 10000 | < 50 | < 50 | < 50 | 1000 to 10000 | 1000 to 10000 | –
3 | COCCOC(=O)N1[C@@H]2CC[C@H]1[C@H](C(=O)NO)N(S(=O)(=O)c1ccc(Oc3ccc(OC(F)(F)F)cc3)nc1)C2 [Example 19, 2-methoxyethyl (1S,2R,5R)-2-(hydroxycarbamoyl)-3-((6-(4-(trifluoro-methoxy)phenoxy)-pyridin-3-yl)-sulfonyl)-3,8-diaza-bicyclo[3.2.1]octane-8-carboxylate] | 1000 to 10000 | < 50 | < 50 | < 50 | 1000 to 10000 | > 10000 | –
4 | COCCOC(=O)N1[C@@H]2CC[C@H]1[C@H](C(=O)NO)N(S(=O)(=O)c1ccc(Oc3ccc(Cl)cc3F)nc1)C2 [Example 20, 2-methoxyethyl (1S,2R,5R)-3-((6-(4-chloro-2-fluoro-phenoxy)pyridin-3-yl)sulfonyl)-2-(hydroxycarbamoyl)-3,8-diazabicyclo[3.2.1]-octane-8-carboxylate] | 50 to 1000 | < 50 | < 50 | < 50 | 50 to 1000 | 1000 to 10000 | –
5 | COCCOC(=O)N1[C@@H]2CC[C@H]1[C@H](C(=O)NO)N(S(=O)(=O)c1ccc(Oc3ccc(F)cc3F)nc1)C2 [Example 21, 2-methoxyethyl (1S,2R,5R)-3-((6-(2,4-difluoro-phenoxy)pyridin-3-yl)sulfonyl)-2-(hydroxycarbamoyl)-3,8-diazabicyclo-[3.2.1]octane-8-carboxylate] | 50 to 1000 | < 50 | < 50 | < 50 | 50 to 1000 | > 10000 | –
6 | COCCOC(=O)N1[C@@H]2CC[C@H]1[C@H](C(=O)NO)N(S(=O)(=O)c1ccc(Oc3ccc(F)c(F)c3)nc1)C2 [Example 22, 2-methoxyethyl (1S,2R,5R)-3-((6-(3,4-difluoro-phenoxy)pyridin-3-yl)sulfonyl)-2-(hydroxycarbamoyl)-3,8-diazabicyclo-[3.2.1]octane-8-carboxylate] | 50 to 1000 | < 50 | < 50 | < 50 | 50 to 1000 | > 10000 | –
7 | COCCOC(=O)N1[C@@H]2CC[C@H]1[C@H](C(=O)NO)N(S(=O)(=O)c1ccc(Oc3ccc(OC(F)F)cc3)nc1)C2 [Example 24, 2-methoxyethyl (1S,2R,5R)-3-((6-(4-(difluoromethoxy)phenoxy)pyridin-3-yl)sulfonyl)-2-(hydroxycarbamoyl)-3,8-diazabicyclo[3.2.1]octane-8-carboxylate] | 1000 to 10000 | < 50 | < 50 | < 50 | 50 to 1000 | 1000 to 10000 | –
8 | COCCOC(=O)N1[C@@H]2CC[C@H]1[C@H](C(=O)NO)N(S(=O)(=O)c1ccc(Oc3ccc(OCC(F)(F)F)cc3)nc1)C2 [Example 25, 2-methoxyethyl (1S,2R,5R)-2-(hydroxycarbamoyl)-3-((6-(4-(2,2,2-trifluoroethoxy)-phenoxy)pyridin-3-yl)sulfonyl)-3,8-diazabicyclo[3.2.1]-octane-8-carboxylate] | 1000 to 10000 | < 50 | < 50 | < 50 | > 10000 | > 10000 | –
9 | COCCOC(=O)N1[C@@H]2CC[C@H]1[C@H](C(=O)NO)N(S(=O)(=O)c1ccc(Oc3ccc(OC)nc3)nc1)C2 [Example 28, 2-methoxyethyl (1S,2R,5R)-2-(hydroxycarbamoyl)-3-((6-((6-methoxy-pyridin-3-yl)oxy)-pyridin-3-yl)-sulfonyl)-3,8-diaza-bicyclo[3.2.1]octane-8-carboxylate] | 50 to 1000 | < 50 | < 50 | < 50 | 1000 to 10000 | > 10000 | –
10 | CCOc1ccc(Oc2ccc(S(=O)(=O)N3C[C@H]4CC[C@@H]([C@@H]3C(=O)NO)N4C(=O)OCCOC)cn2)cc1 [Example 29, 2-methoxyethyl (1S,2R,5R)-3-((6-(4-ethoxyphenoxy)-pyridin-3-yl)-sulfonyl)-2-(hydroxycarbamoyl)-3,8-diazabicyclo-[3.2.1]octane-8-carboxylate] | 50 to 1000 | < 50 | < 50 | – | 1000 to 10000 | > 10000 | < 50
11 | COCCOC(=O)N1[C@@H]2CC[C@H]1[C@H](C(=O)NO)N(S(=O)(=O)c1ccc(Oc3ccc(OC(C)C)cc3)nc1)C2 [Example 30, 2-methoxyethyl (1S,2R,5R)-2-(hydroxycarbamoyl)-3-((6-(4-isopropoxy-phenoxy)pyridin-3-yl)sulfonyl)-3,8-diazabicyclo[3.2.1]-octane-8-carboxylate] | 50 to 1000 | < 50 | < 50 | < 50 | 1000 to 10000 | > 10000 | –

— US20250215010A1, “DIAZABICYCLOOCTANE DERIVATIVES USEFUL AS MATRIX METALLOPROTEINASE INHIBITORS” (VASA THERAPEUTICS SPOLKA Z OGRANICZONA ODPOWIEDZIALNOSCIA, priority 2022, published 2025)
